Data on one molecule can be found in BindingDB's records for doi:10.1124/jpet.104.065391 (University of Arizona, 2004).

One assay addresses Mu-type opioid receptor (Homo sapiens, UniProt P35372).
Assay [1] has as its target Kappa-type opioid receptor (Homo sapiens, UniProt P41145).

Where a SMILES comes first, the peptide text is derived from it. [ ]: non-standard residue; d: D form. dNle = CCCC[C@@H](N)C(=O)O

Chain of Mu-type opioid receptor (P35372 whole entry): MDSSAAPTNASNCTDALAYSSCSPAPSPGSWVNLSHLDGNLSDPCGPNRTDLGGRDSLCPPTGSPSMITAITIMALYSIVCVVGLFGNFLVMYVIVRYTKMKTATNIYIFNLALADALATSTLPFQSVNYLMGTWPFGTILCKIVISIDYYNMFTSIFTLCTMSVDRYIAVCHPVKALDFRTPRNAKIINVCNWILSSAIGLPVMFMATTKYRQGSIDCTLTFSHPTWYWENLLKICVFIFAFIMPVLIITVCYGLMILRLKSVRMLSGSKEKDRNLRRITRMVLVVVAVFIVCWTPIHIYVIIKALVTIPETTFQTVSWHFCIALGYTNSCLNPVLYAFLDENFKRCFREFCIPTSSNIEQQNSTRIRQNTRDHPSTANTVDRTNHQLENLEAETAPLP
Chain of Kappa-type opioid receptor (P41145 whole entry): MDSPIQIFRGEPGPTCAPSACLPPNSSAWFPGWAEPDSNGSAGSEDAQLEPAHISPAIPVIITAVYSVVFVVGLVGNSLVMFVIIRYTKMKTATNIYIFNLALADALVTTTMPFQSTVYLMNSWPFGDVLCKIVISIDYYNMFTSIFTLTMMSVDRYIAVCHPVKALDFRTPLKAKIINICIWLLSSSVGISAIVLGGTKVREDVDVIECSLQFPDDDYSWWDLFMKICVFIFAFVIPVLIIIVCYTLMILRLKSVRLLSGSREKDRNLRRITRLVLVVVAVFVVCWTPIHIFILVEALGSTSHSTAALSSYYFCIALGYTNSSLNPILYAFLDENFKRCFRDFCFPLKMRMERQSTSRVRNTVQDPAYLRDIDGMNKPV

The Ki is a measure of affinity in units of concentration, obtained from inhibition or displacement. Read a high Ki as a looser hold on the target. On to `CCCC[C@@H](NC(=O)[C@@H](Cc1ccccc1)NC(=O)[C@H](N)Cc1ccccc1)C(=O)N[C@H](CCCNC(=N)N)C(N)=O` [d-Phe-d-Phe-d-Nle-d-Arg-NH2] (H-[dF][dF][dNle][dR]-NH2), for which the inhibition constant (Ki) was determined as 4.57 µM at Mu-type opioid receptor and 0.146 nM in assay [1].
